Assay [1] relates to mouse osteoblast-like cell line MC3T3-E1 Subclone-4. Kind of assay: Osteoblast growth-promoting activity (cell counting method). It counts as cell-based. The note with it: synthetic peptides at 2.5, 5 or 10 μg/mL; 72 hours; relative to PBS (−) group taken as 100; FIGS. 9 to 12. As for the experimental part:
A mouse osteoblast-like cell line MC3T3-E1 Subclone-4 (ATCC No. CRL-2593) was cultured in α-MEM medium supplemented with 10% FBS at 5% CO2 and 95% air at 37° C. until confluent. The cells were collected by trypsinization. The collected cells were suspended at 1×10^4 cells/mL in fresh α-MEM medium. One mL of the cell suspension was seeded in each well of a 24-well plate, and precultured at 5% CO2 and 95% air at 37° C. On the next day, the medium was replaced with medium prepared by well mixing 50 μL of a sample or PBS (−) with 950 μL of fresh α-MEM medium supplemented with CaCl2 to a Ca concentration of 500 μg/mL. The cells were further cultured for 72 hours. The growth activity of osteoblasts was measured by the cell counting method. The activity of the sample for promoting the growth of osteoblasts was expressed in terms of the relative value, with the growth rate in the PBS (−) group taken as 100. Osteoblast growth-promoting activity was determined for the synthetic peptides in the same manner as in Example 1. The synthetic peptides were added at 2.5, 5 or 10 μg/mL per well. As a control, PBS (−) was added. The osteoblast growth-promoting activity was expressed in terms of the relative value, with the growth rate in the PBS (−) group taken as 100.

In assay [2] the test system is mouse-derived chondrogenic cell line ATDC5. The assay is described as follows: Chondrocyte growth-promoting activity (Cell Counting Kit-8). The class given is cell-based. The note with it: 10 nmol/mL; 72 hours; relative to control taken as 100%; FIG. 14. As to the method: This study was performed using mouse-derived chondrogenic cell line ATDC5 (RIKEN BANK, RBC0565). ATDC5 cells in the logarithmic growth phase were suspended at 3×10^4 cells/mL in Eagle MEM medium supplemented with 5% FCS (fetal calf serum), and 100 μL of the cell suspension was seeded in each well of a 96-well plate and precultured at 5% CO2 and 95% air at 37° C. On the next day, the medium in each well was removed, and medium containing the synthetic peptide (No. 1 or No. 6) at 10 nmol/mL was added. The cells were cultured for 72 hours. As a control, medium without a synthetic peptide was added. The reaction solution ([…]) of Cell Counting Kit-8 (Dojindo Laboratories) was added to each well. The plate was incubated for 3 hours, and the absorbance at 450 nm was measured with a microplate reader. The activity of the synthetic peptides for promoting the growth of chondrocytes was expressed in terms of the relative value, with the absorbance (growth rate) in the control group taken as 100%.
(In general: Tetrazolium assays rely on reduction of a dye to a coloured formazan, in cell work by metabolically active cells.)

Assay [3] deals with mouse-derived cell line ATDC5. Kind of assay: Hyaluronic acid production-promoting activity (ELISA of culture supernatant). It counts as cell-based. The note with it: 10 nmol/mL; supernatant after 48 hours of culture; FIG. 15. As to the method: This study was performed using the mouse-derived cell line ATDC5 as used in Example 4. ATDC5 cells in the logarithmic growth phase were seeded at 2×10^4 cells/mL per well in a 24-well plate containing DMEM/F-12 (1:1) medium supplemented with 5% FCS (fetal calf serum), 10 μg/mL transferrin and 3×10^−8 M sodium selenite. The cells were precultured at 5% CO2 and 95% air at 37° C. On the next day, the medium in each well was removed, and medium containing the synthetic peptide (No. 1 or No. 6) at 10 nmol/mL was added. The cells were cultured for […]. As a control, medium without a synthetic peptide was added. After 48 hours of culture, the culture supernatants were collected, and their hyaluronic acid concentrations were measured using QnE Hyaluronic Acid ELISA Assay (Biotech Trading Partners). The concentrations of hyaluronic acid in the culture supernatants of the synthetic peptide addition group were calculated by subtracting the absorbance of the background from the absorbance of the supernatants, and fitting the resulting values to the reference curve prepared using the standard.
Background: An ELISA detects its analyte on a solid surface through an enzyme-linked reagent.

The subject of assay [4] is mature female rats (eight months old). The assay is described as follows: Bone formation-promoting effect in mature rats. It counts as in vivo, rat. The note with it: No. 1 oral 1, 10 or 100 mg/kg·day, alendronate 300 μg/kg subcutaneous, 20 weeks, vs control group. As to the method: Synthetic peptide No. 1 was administered to mature female rats (eight months old, ten rats in each group) by oral gavage using a gastric tube once a day for 20 weeks. The dose of the synthetic peptide was 1, 10 or 100 mg/kg·day.

The test system of assay [5] is Crlj:W1 male rats at four weeks old. Kind of assay: Bone formation in growth cartilage and primary cancellous bone, 7-day oral administration. The class given is in vivo, rat. The note with it: No. 1 oral 100 mg/kg-day, hGH 500 μg/kg-day subcutaneous, seven days. As to the method: One of the synthetic peptides (No. 1) or water for injection (control) was administered to Crlj:W1 male rats at four weeks old by oral gavage using a gastric tube once a day for seven days (n=3 in each group). The dose of the synthetic peptide (No. 1) was 100 mg/kg-day. As a positive control, human growth hormone (hGH) (Norditropin, Standard Commodity Classification No. of Japan: 872412) was subcutaneously administered at 500 μg/kg-day once a day for seven days. As fluorescent labels for the site of bone formation, tetracycline (20 mg/kg) was subcutaneously administered on day 4 after the administration of the peptide or control, and then calcein (10 mg/kg) was subcutaneously administered on day 6 after the administration of the peptide or control. After the administration of the test sample on day 7, the rats were kept under fasting conditions. Twenty-four hours later, the blood was collected. The rats were then euthanized by bloodletting under anesthesia, and the tibiae were harvested (see FIG. 16). Non-decalcified specimens of the proximal tibiae were prepared and photographed under a fluorescent microscope (BX-53, OLYMPUS). The bone morphology was measured using a morphometry system (Histometry RT digitizer, System Supply Co., Ltd.) and an analysis software (CSS-840 cancellous bone morphometry version, System Supply Co., Ltd.). The longitudinal growth rate (Lo.G.R.) in the growth cartilage, which is the increase in the height per day, was determined by measuring the distance between the tetracycline label and the calcein label, and dividing the distance by the administration interval between the fluorescent labels (two days).
The increase in the level of IGF-1, which is related to growth of the bones and muscles in a growth phase, may contribute to the bone growth-promoting effect.

Assay [6] has the same test system. The assay is described as follows: Bone formation in growth cartilage and secondary cancellous bone, 21-day oral administration. The class given is in vivo, rat. The note with it: No. 1 oral 100 mg/kg·day, hGH 500 μg/kg·day subcutaneous; 21 days; FIG. 21. As for the experimental part: One of the synthetic peptides (No. 1) or water for injection (control) was administered to Crlj:W1 male rats at four weeks old by oral gavage using a gastric tube once a day for 21 days (n=3 in each group). The dose of the synthetic peptide was 100 mg/kg·day. As a positive control, human growth hormone (hGH) (Norditropin, Standard Commodity Classification No. of Japan: 872412) was subcutaneously administered at 500 μg/kg·day once a day for 21 days. As fluorescent labels for the site of bone formation, tetracycline (20 mg/kg) was subcutaneously administered on day 18 after the administration of the peptide or control, and then calcein (10 mg/kg) was subcutaneously administered on day 20 after the administration of the peptide or control. After the administration of the test sample on day 21, the rats were kept under fasting conditions. Twenty-four hours later, the rats were euthanized by bloodletting under anesthesia, and the tibiae were harvested (see FIG. 20). Non-decalcified specimens of the proximal tibiae were prepared and photographed under a fluorescent microscope (BX-53, OLYMPUS). The bone morphology was measured using a morphometry system (Histometry RT digitizer, System Supply Co., Ltd.) and an analysis software (CSS-840 cancellous bone morphometry version, System Supply Co., Ltd.). The longitudinal growth rate (Lo.G.R.) in the epiphyseal cartilage, which is the increase in the height per day, was determined by measuring the distance between the tetracycline label and the calcein label, and dividing the distance by the administration interval between the fluorescent labels (two days).

Assay [7] has the same test system. The assay is described as follows: Mineral apposition rate in secondary cancellous bone, 7-day oral administration. The class given is in vivo, rat. The note with it: No. 1 oral 1, 10 or 100 mg/kg-day, hGH 500 μg/kg·day subcutaneous; seven days; FIG. 26. As to the method:
One of the synthetic peptides (No. 1) or water for injection (control) was administered to Crlj:W1 male rats at four weeks old by oral gavage using a gastric tube once a day for seven days (n=10 in each group). The dose of the synthetic peptide was 1, 10 or 100 mg/kg-day. As a positive control, human growth hormone (hGH) (Norditropin, Standard Commodity Classification No. of Japan: 872412) was subcutaneously administered at 500 μg/kg·day once a day for seven days. As fluorescent labels for the site of bone formation, tetracycline (20 mg/kg) was subcutaneously administered on day 4 after the administration of the peptide or control, and then calcein (10 mg/kg) was subcutaneously administered on day 6 after the administration of the peptide or control. After the administration of the test sample on day 7, the rats were kept under fasting conditions. Twenty-four hours later, the rats were euthanized by bloodletting under anesthesia, and the tibiae were harvested. Non-decalcified specimens of the proximal tibiae were prepared and photographed under a fluorescent microscope (BX-53, OLYMPUS). The bone morphology was measured using a morphometry system (Histometry RT digitizer, System Supply Co., Ltd.) and an analysis software (CSS-840 cancellous bone morphometry version, System Supply Co., Ltd.). The mineral apposition rate (MAR), per day, in the secondary cancellous bone was determined by measuring the distance between the tetracycline label and the calcein label in the secondary cancellous bone, and dividing the distance by the administration interval between the fluorescent labels (two days). […] The increase in the mineral apposition rate in the secondary cancellous bone in the No. 1 administration group would have resulted from the increase in the number of osteoblasts.

This note sets out measurements from patent US10538564B2, “Peptides having osteoblast growth-promoting activity and use thereof” (PHARMA FOODS INTERNATIONAL CO., LTD., priority 2014, dated 2020).

No end group written: not given here.

For EDESSPYE [No. 5], the osteoblast growth-promoting activity result in assay [1] is “promoted the growth of osteoblasts in a concentration-dependent manner”.

VNPESEE [No. 2]: in assay [1], the osteoblast growth-promoting activity entry was “promoted the growth of osteoblasts in a concentration-dependent manner”. VNPESEEEDESSPYE [No. 6]: in assay [2], the chondrocyte growth-promoting activity result is “showed chondrocyte growth-promoting effect”. Besides, the “hyaluronic acid production-promoting activity (hyaluronic acid concentration in culture supernatant)” value in assay [3] is listed as “showed hyaluronic acid production-promoting effect”. Besides, the osteoblast growth-promoting activity result in assay [1] was “promoted the growth of osteoblasts in a concentration-dependent manner”. Consider `NCCCC(O)(P(=O)(O)O)P(=O)(O)O` [alendronate, alendronate sodium hydrate, reference compound], for which the “cancellous bone volume in the proximal tibial metaphysis” value in assay [4] is “significantly increased”. Consider Pro-Glu-Ser-Glu-Glu (PESEE) [No. 3], for which, in assay [1], the osteoblast growth-promoting activity entry was “promoted the growth of osteoblasts in a concentration-dependent manner”. Still for that read-out and setting: as for DESSPYE [No. 4], the entry is “promoted the growth of osteoblasts in a concentration-dependent manner”. As for “hGH: human growth hormone (hGH) (Norditropin), positive control, subcutaneously administered [reference compound]”, in assay [5] (ELISA, FIG. 19), the “serum level of insulin-like growth factor (IGF-1)” value is “higher than that in the control group”. Further, the “longitudinal growth rate (Lo.G.R.) in the growth cartilage, vs control group” value in assay [5] (FIG. 17) is “significant promotion of bone growth as compared with the control group”. In assay [6], the “longitudinal growth rate (Lo.G.R.) in the epiphyseal cartilage, vs control group” value was “significant promotion of bone growth as compared with the control group”. For the same compound, in assay [7], the “mineral apposition rate (MAR) in the secondary cancellous bone, vs control group” value was “significant increase in the mineral apposition rate”.
